{"source": "ChEMBL document CHEMBL5236635", "about": "“Structure-Based Drug Design and Synthesis of Novel N-Aryl-2,4-bithiazole-2-amine CYP1B1-Selective Inhibitors in Overcoming Taxol Resistance in A549 Cells” (J Med Chem, 2022)", "key": {"A549 [1]": {"test_system": "A549", "test": "Inhibition of DMBA-induced CYP1B1 overexpression in human A549 cells assessed as increase in N-cadherin level incubated for 24 hrs by densitometry analysis", "assay_type": "functional, cell-based", "conditions": "dose 5.0 µM"}, "NCI-H460 [2]": {"test_system": "NCI-H460", "test": "Inhibition of cell migration in DMBA-induced human NCI-H460 cells at 5 uM incubated for 48 hrs by inverted microscopic analysis", "assay_type": "functional, cell-based"}, "A549 [3]": {"test_system": "A549", "test": "Inhibition of cell invasion in DMBA-induced human A549 cells at 5 uM by optical microscopic analysis", "assay_type": "functional, cell-based"}, "[4]": {"target": "T1, Mitogen-activated protein kinase; ERK1/ERK2 (Homo sapiens) (UniProt P27361+P28482)", "T1 sequence (P27361 whole entry, looked up)": "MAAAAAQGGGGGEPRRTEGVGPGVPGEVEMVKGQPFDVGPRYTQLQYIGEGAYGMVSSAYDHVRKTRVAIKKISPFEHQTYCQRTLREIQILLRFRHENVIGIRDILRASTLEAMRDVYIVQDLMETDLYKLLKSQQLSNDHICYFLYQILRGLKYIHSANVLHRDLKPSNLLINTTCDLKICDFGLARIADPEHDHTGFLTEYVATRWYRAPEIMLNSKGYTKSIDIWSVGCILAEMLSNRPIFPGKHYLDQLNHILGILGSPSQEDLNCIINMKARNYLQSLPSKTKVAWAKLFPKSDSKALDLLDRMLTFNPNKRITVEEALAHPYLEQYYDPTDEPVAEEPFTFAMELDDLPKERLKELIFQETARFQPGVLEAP", "T1 sequence (P28482 whole entry, looked up)": "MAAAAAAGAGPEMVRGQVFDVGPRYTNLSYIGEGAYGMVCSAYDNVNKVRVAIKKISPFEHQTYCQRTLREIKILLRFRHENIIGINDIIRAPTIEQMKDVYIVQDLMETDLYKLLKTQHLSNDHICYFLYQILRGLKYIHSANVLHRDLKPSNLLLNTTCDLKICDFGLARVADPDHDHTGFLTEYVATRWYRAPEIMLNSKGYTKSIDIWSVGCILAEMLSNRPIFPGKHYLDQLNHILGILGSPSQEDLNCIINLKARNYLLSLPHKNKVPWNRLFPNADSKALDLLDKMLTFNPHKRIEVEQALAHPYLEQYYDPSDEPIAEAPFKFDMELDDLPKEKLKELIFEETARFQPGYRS", "test": "Inhibition of ERK1/2 pathway in human A549/Taxol cells assessed as decrease in phosphorylated ERK1/2 level at 5 uM incubated for 24 hrs", "assay_type": "cell-based"}, "A549 [5]": {"test_system": "A549", "test": "Inhibition of DMBA-induced CYP1B1 overexpression in human A549 cells assessed as effect on MMP-9 level at 5 uM incubated for 24 hrs by densitometry analysis", "assay_type": "functional, cell-based"}, "NCI-H460 [6]": {"test_system": "NCI-H460", "test": "Inhibition of DMBA-induced CYP1B1 overexpression in human NCI-H460 cells assessed as increase in Paxillin level incubated for 24 hrs by densitometry analysis", "assay_type": "functional, cell-based", "conditions": "dose 5.0 µM"}, "A549/TR [7]": {"test_system": "A549/TR", "test": "Reversal of taxol resistance in human A549/Taxol cells assessed as increase in Rho123 accumulation at 5 uM incubated for 20 mins by multimode plate reader analysis", "assay_type": "functional, cell-based"}, "NCI-H460 [8]": {"test_system": "NCI-H460", "test": "Inhibition of DMBA-induced CYP1B1 overexpression in human NCI-H460 cells assessed as effect on Snail level at 5 uM incubated for 24 hrs by densitometry analysis", "assay_type": "functional, cell-based"}, "A549 [9]": {"test_system": "A549", "test": "Inhibition of DMBA-induced CYP1B1 overexpression in human A549 cells assessed as increase in snail level incubated for 24 hrs by densitometry analysis", "assay_type": "functional, cell-based", "conditions": "dose 5.0 µM"}, "NCI-H460 [10]": {"test_system": "NCI-H460", "test": "Inhibition of DMBA-induced CYP1B1 overexpression in human NCI-H460 cells assessed as increase in FAK level incubated for 24 hrs by densitometry analysis", "assay_type": "functional, cell-based", "conditions": "dose 5.0 µM"}, "Cytochrome P450 1A2": {"target": "T2, Cytochrome P450 1A2 (Homo sapiens, UniProt P05177)", "T2 sequence (P05177 whole entry)": "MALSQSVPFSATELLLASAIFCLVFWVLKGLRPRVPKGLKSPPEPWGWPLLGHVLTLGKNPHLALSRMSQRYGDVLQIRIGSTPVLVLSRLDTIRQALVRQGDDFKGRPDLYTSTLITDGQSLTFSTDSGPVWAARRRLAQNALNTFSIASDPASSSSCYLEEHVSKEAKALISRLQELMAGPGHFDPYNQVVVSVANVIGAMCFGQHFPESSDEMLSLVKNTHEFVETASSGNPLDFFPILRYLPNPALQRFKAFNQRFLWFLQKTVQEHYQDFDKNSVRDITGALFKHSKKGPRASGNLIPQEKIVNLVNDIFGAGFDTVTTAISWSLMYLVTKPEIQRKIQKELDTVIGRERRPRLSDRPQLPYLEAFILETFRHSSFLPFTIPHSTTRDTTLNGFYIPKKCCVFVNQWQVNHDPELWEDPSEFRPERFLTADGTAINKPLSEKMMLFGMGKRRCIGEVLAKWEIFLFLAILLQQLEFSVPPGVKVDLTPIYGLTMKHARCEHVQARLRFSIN", "test": "Inhibition of recombinant human CYP1A2 using 7-ethyl-0-resorufin as substrate incubated for 30 mins in presence of NADPH by EROD assay"}, "A549 [11]": {"test_system": "A549", "test": "Inhibition of DMBA-induced CYP1B1 overexpression in human A549 cells assessed as increase in Paxillin level incubated for 24 hrs by densitometry analysis", "assay_type": "functional, cell-based", "conditions": "dose 5.0 µM"}, "A549 [12]": {"test_system": "A549", "test": "Inhibition of DMBA-induced CYP1B1 overexpression in human A549 cells assessed as increase in SRC level incubated for 24 hrs by densitometry analysis", "assay_type": "functional, cell-based", "conditions": "dose 5.0 µM"}, "A549/TR [13]": {"test_system": "A549/TR", "test": "Synergistic antiproliferative activity against human A549/Taxol cells assessed as increase in taxol by measuring combination index at 3.75 uM incubated for 72 hrs in presence of 0.50 uM taxol by MTT assay", "assay_type": "functional"}, "[14]": {"target": "Focal adhesion kinase 1 (Homo sapiens) (UniProt Q05397)", "sequence (Q05397 2-1052 limits assumed)": "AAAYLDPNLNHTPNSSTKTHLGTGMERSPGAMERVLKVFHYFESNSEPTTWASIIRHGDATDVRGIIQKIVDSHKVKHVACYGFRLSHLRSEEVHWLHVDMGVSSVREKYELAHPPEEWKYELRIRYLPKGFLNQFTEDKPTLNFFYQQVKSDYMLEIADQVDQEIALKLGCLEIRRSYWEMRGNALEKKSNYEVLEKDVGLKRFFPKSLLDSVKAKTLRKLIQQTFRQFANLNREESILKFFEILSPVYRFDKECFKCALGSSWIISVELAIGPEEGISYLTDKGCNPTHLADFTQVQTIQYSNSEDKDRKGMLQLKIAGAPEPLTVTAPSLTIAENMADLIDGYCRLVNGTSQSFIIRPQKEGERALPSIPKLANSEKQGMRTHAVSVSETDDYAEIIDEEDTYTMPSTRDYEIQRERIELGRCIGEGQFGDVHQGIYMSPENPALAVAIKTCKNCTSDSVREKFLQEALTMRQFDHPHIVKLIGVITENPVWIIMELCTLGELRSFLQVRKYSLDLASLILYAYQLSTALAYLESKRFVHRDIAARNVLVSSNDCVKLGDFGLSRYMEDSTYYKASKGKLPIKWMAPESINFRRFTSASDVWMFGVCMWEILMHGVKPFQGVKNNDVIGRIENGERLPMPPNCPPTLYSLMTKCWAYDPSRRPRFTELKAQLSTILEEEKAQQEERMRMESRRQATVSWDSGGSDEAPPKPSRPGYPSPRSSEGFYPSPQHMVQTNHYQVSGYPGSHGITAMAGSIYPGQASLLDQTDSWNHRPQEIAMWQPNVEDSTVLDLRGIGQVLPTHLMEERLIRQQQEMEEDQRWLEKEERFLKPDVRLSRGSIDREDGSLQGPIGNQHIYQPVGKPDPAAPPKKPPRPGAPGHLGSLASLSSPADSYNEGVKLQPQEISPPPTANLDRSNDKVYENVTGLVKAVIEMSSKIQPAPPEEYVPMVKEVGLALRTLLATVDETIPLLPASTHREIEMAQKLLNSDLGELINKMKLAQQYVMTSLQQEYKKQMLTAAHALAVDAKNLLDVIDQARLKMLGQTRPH", "test": "Inhibition of FAK pathway in human A549/Taxol cells assessed as decrease in phosphorylated FAK level at 2.5 to 5 uM incubated for 24 hrs", "assay_type": "cell-based", "conditions": "dose 2.5-5 µM"}, "Cytochrome P450 1B1": {"target": "T3, Cytochrome P450 1B1 (Homo sapiens, UniProt Q16678)", "T3 sequence (Q16678 whole entry)": "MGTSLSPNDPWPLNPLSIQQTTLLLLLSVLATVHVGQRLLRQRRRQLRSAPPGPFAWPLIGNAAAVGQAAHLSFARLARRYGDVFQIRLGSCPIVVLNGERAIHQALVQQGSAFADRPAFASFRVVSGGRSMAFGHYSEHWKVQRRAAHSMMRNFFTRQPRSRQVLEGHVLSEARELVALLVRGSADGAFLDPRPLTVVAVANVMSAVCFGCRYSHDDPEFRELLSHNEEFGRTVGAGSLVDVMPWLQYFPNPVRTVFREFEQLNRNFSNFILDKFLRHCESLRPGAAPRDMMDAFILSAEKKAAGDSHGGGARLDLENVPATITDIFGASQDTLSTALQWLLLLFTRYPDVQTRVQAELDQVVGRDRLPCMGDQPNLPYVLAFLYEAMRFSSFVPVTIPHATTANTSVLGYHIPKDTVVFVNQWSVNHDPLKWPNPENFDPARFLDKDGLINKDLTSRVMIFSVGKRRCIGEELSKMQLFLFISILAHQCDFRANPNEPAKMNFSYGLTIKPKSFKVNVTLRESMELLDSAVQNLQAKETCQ", "test": "Inhibition of recombinant human CYP1B1 using 7-ethyl-0-resorufin as substrate incubated for 30 mins in presence of NADPH by EROD assay"}, "A549/TR [15]": {"test_system": "A549/TR", "test": "Synergistic antiproliferative activity against human A549/Taxol cells assessed as increase in taxol by measuring combination index at 7.50 uM incubated for 72 hrs in presence of 1 uM taxol by MTT assay", "assay_type": "functional", "conditions": "dose 7.5 µM"}, "A549/TR [16]": {"test_system": "A549/TR", "test": "Synergistic antiproliferative activity against human A549/Taxol cells assessed as increase in taxol by measuring combination index at 3.75 uM incubated for 72 hrs in presence of 0.06 uM taxol by MTT assay", "assay_type": "functional"}, "A549/TR [17]": {"test_system": "A549/TR", "test": "Inhibition of cell migration in human A549/Taxol cells incubated for 36 hrs", "assay_type": "functional, cell-based", "conditions": "dose 2.5-10 µM"}, "A549/TR [18]": {"test_system": "A549/TR", "test": "Synergistic antiproliferative activity against human A549/Taxol cells assessed as increase in taxol by measuring combination index at 7.50 uM incubated for 72 hrs in presence of 0.25 uM taxol by MTT assay", "assay_type": "functional", "conditions": "dose 7.5 µM"}, "A549/TR [19]": {"test_system": "A549/TR", "test": "Synergistic antiproliferative activity against human A549/Taxol cells assessed as increase in taxol by measuring combination index at 15 uM incubated for 72 hrs in presence of 0.13 uM taxol by MTT assay", "assay_type": "functional"}, "A549/TR [20]": {"test_system": "A549/TR", "test": "Synergistic antiproliferative activity against human A549/Taxol cells assessed as increase in taxol by measuring combination index at 30 uM incubated for 72 hrs in presence of 0.06 uM taxol by MTT assay", "assay_type": "functional"}, "A549/TR [21]": {"test_system": "A549/TR", "test": "Synergistic antiproliferative activity against human A549/Taxol cells assessed as increase in taxol by measuring combination index at 15 uM incubated for 72 hrs in presence of 1 uM taxol by MTT assay", "assay_type": "functional"}, "[22]": {"target": "T1, Mitogen-activated protein kinase; ERK1/ERK2 (Homo sapiens)", "test": "Inhibition of ERK1/2 pathway in human A549/Taxol cells assessed as decrease in phosphorylated ERK1/2 level at 2.5 to 5 uM incubated for 24 hrs", "assay_type": "cell-based", "conditions": "dose 2.5-5 µM"}}, "note": "Activity calls are given as the source filed them. The calls are words filed in the database; no cut-off is given here."}
{"smiles": "COc1cc(/C=C/c2ccc(OC)cc2OC)cc(OC)c1", "values": [{"measurement": "inhibition", "setting": "A549 [1]", "value": "Dose-Dependent Effect"}, {"measurement": "inhibition", "setting": "NCI-H460 [2]", "value": "Active"}, {"measurement": "inhibition", "setting": "A549 [3]", "value": "Active"}, {"measurement": "inhibition", "setting": "[4]", "value": "Active"}, {"measurement": "inhibition", "setting": "A549 [5]", "value": "inactive"}, {"measurement": "inhibition", "setting": "NCI-H460 [6]", "value": "Dose-Dependent Effect"}, {"measurement": "Activity", "setting": "A549/TR [7]", "value": "Active"}, {"measurement": "inhibition", "setting": "NCI-H460 [8]", "value": "inactive"}, {"measurement": "inhibition", "setting": "A549 [9]", "value": "Dose-Dependent Effect"}, {"measurement": "inhibition", "setting": "NCI-H460 [10]", "value": "Dose-Dependent Effect"}, {"measurement": "IC50", "setting": "Cytochrome P450 1A2", "value": 2390, "unit": "nM"}, {"measurement": "inhibition", "setting": "A549 [11]", "value": "Dose-Dependent Effect"}, {"measurement": "inhibition", "setting": "A549 [12]", "value": "Dose-Dependent Effect"}]}
{"smiles": "COc1cc(Nc2nc(-c3nc(-c4ccccc4F)cs3)cs2)cc(OC)c1", "values": [{"measurement": "CI", "setting": "A549/TR [13]", "value": 0.98}, {"measurement": "inhibition", "setting": "[14]", "value": "Active"}, {"measurement": "IC50", "setting": "Cytochrome P450 1B1", "value": 6.6, "unit": "nM"}, {"measurement": "CI", "setting": "A549/TR [15]", "value": 1.36}, {"measurement": "CI", "setting": "A549/TR [16]", "value": 0.64}, {"measurement": "inhibition", "setting": "A549/TR [17]", "value": "Dose-Dependent Effect"}, {"measurement": "CI", "setting": "A549/TR [18]", "value": 0.47}, {"measurement": "CI", "setting": "A549/TR [19]", "value": 0.22}, {"measurement": "CI", "setting": "A549/TR [20]", "value": 0.09}, {"measurement": "CI", "setting": "A549/TR [21]", "value": 0.71}, {"measurement": "inhibition", "setting": "[22]", "value": "Active"}]}
